Experimental data taken from patent US20180221352A1, “3-(1H-PYRROLO[2,3-C]PYRIDIN-2-YL)-1H-PYRAZOLO[3,4-B]PYRIDINES AND THERAPEUTIC USES THEREOF” (Samumed, LLC, priority 2015, published 2018).

Experiments:
Type in all cases: cell-based
IL-6 = IL-6 inhibition in LPS-stimulated THP-1 cells (HTRF); conditions: Homo sapiens; for EC50: THP-1 cells, LPS 500 ng/mL, 22 hours, IL6 HTRF
In short: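 Serum-reduced (1% FBS, 24 h) THP-1 cells, 5000/well, exposed to compound 2 h at 37 °C, then stimulated with 500 ng/mL LPS for 22 h. Secreted IL-6 measured by HTRF (665/620 ratio), normalised to DMSO; EC50 by four-parameter fit, duplicates.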

SW480 colon cancer cells = test: Cell viability assay (CellTiter-Blue); conditions: Homo sapiens; for EC50: 96 h, SW480 cell viability, four days; for inhibition at 10 µM: SW480, 96 h, read-out: percent inhibition at 10 μM
In short: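 Fluorescence from resazurin reduced to resorufin by metabolically active cells was the read-out, taken after ~3 h with CellTiter-Blue.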

[1] = test system: primary human mesenchymal stem cells (hMSCs); test: Induction of chondrogenesis in hMSCs (nodule count); conditions: 6 days; for Emax: relative to TGF-β3 (10 ng/mL) positive control, read-out: Max. Activity as % TGF-β3 activity; for EC50: concentration required to induce 50% levels of chondrogenesis vs TGF-β3, read-out: Conc (nM) of 50% TGF-β3 activity
Source text: Representative compounds were screened using primary human mesenchymal stem cells (hMSCs) to determine their ability to induce chondrogenesis (process by which cartilage is developed).
Primary human mesenchymal stem cells (hMSCs) were purchased from Lonza (Walkersville, Md.) and expanded in Mesenchymal Stem Cell Growth Media (Lonza). Cells between passage 3 and 6 were used for the experiments.
To image chondrogenic nodules, the cells were fixed using 4% formaldehyde (Electron Microscopy Sciences), and stained with 2 μg/mL Rhodamine B (Sigma-Aldrich) and 20 μM Nile Red (Sigma-Aldrich) [Johnson K., et. al, A Stem Cell-Based Approach to Cartilage Repair, Science, (2012). […] Number of nodules in each well was normalized to the average of 3 DMSO treated wells on the same plate using Excel (Microsoft Inc.). The normalized averages (fold change over DMSO) of 3 replicate wells for each compound concentration were calculated. Due to solubility limitations of some of the compounds, curve fitting was incomplete leading to inaccurate EC50 determinations.
Using TGF-β3 as a positive control, the concentration of representative compounds required to induce 50% levels of chondrogenesis is reported. In addition, the maximum activity of each compound and the respective dose that each compound reached maximum chondrogenesis activity is reported.

[2] = test system: primary human fibroblasts derived from IPF patients (LL29 cells); test: Inhibition of fibrotic process, αSMA staining in TGF-β1 treated fibroblasts; conditions: Fibroblast, 96 h, LL29 cells, TGF-β1 20 ng/mL, 4 days, % αSMA positive cells
In short: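 LL29 fibroblasts plated in F12 with 1% FBS were stimulated with TGF-β1 alongside compound, with TGF-β1 plus DMSO wells as controls. After 4 days of incubation, SYTOX green was added at 1 μM final for 30 min at room temperature.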

[3] = test system: Wnt activity (Sp5-Luc reporter, SW480 colon carcinoma cells); test: Wnt activity screening assay, Sp5-Luc reporter gene in SW480 cells; conditions: Homo sapiens; for inhibition at 10 µM: SW480, read-out: percent inhibition at 10 μM; for EC50: Sp5-Luc reporter, SW480 cells, overnight incubation
In short: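 SW480 cells stably carrying a luciferase reporter driven by an Sp5 promoter with eight TCF/LEF sites, plated overnight in 1% FBS medium at 37 °C. Luminescence read with BrightGlo. Signals normalized to DMSO-treated cells; EC50 from four-parameter variable-slope fit.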

Question: Which inhibition at 10 µM (IL-6; THP-1, read-out: percent inhibition at 10 μM) does the source give for `O=C(Nc1cncc(-c2cnc3[nH]nc(-c4cc5c(-c6ccncc6)cncc5[nH]4)c3c2)c1)C1CCC1` [Compound 133, N-(5-(3-(4-(Pyridin-4-yl)-1H-pyrrolo[2,3-c]pyridin-2-yl)-1H-pyrazolo[3,4-b]pyridin-5-yl)pyridin-3-yl)cyclobutanecarboxamide] here?
Answer: 43.3%

Question: What about the EC50 (IL-6) of the same molecule?
Answer: > 10000 nM

Question: What about the EC50 (SW480 colon cancer cells) of the same molecule?
Answer: > 10000 nM

Question: And the inhibition at 10 µM (SW480 colon cancer cells)?
Answer: 18.9%

Question: And the Emax [1]?
Answer: 43%

Question: What about the EC50 [2] of the same molecule?
Answer: 4920 nM

Question: And the inhibition at 10 µM [3]?
Answer: 7%

Question: And the EC50 [3]?
Answer: > 10000 nM

Question: What does the source list for `Cc1ccncc1-c1cnc2[nH]nc(-c3cc4c(-c5cccnc5)cncc4[nH]3)c2c1` [Compound 89, 5-(4-Methylpyridin-3-yl)-3-(4-(pyridin-3-yl)-1H-pyrrolo[2,3-c]pyridin-2-yl)-1H-pyrazolo[3,4-b]pyridine]?
Answer: EC50 (IL-6): 3440 nM; EC50 (SW480 colon cancer cells): 3290 nM; Emax [1]: 17%; EC50 [2]: 1480 nM; EC50 [3]: 2250 nM

Question: For `CN(C)Cc1cncc(-c2cnc3[nH]nc(-c4cc5c(-c6ccccc6F)cncc5[nH]4)c3c2)c1` [Compound 69, 1-(5-(3-(4-(2-Fluorophenyl)-1H-pyrrolo[2,3-c]pyridin-2-yl)-1H-pyrazolo [3,4-b]pyridin-5-yl)pyridin-3-yl)-N,N-dimethylmethanamine], which EC50 (IL-6) is on record?
Answer: 131 nM

Question: And the EC50 (SW480 colon cancer cells)?
Answer: 1050 nM

Question: And the EC50 [1]?
Answer: 30 nM

Question: And the Emax [1]?
Answer: 61%

Question: And the EC50 [2]?
Answer: 1890 nM

Question: What about the EC50 [3] of the same molecule?
Answer: 2490 nM

Question: Which results are given for `CS(=O)(=O)NCc1cc(F)cc(-c2cncc3[nH]c(-c4n[nH]c5ncc(-c6cccnc6)cc45)cc23)c1` [Compound 480, N-(3-Fluoro-5-(2-(5-(pyridin-3-yl)-1H-pyrazolo[3,4-b]pyridin-3-yl)-1H-pyrrolo [2,3-c]pyridin-4-yl)benzyl)methane sulfonamide]?
Answer: EC50 (IL-6): 237 nM; EC50 (SW480 colon cancer cells): 3650 nM; EC50 [1]: 2700 nM; Emax [1]: 66%; EC50 [2]: 2240 nM; EC50 [3]: 1460 nM

Question: Which EC50 (IL-6) does the source give for `CC(C)(C)CC(=O)Nc1cncc(-c2cnc3[nH]nc(-c4cc5c(-c6cccnc6)cncc5[nH]4)c3c2)c1` [Compound 100, 3,3-Dimethyl-N-(5-(3-(4-(pyridin-3-yl)-1H-pyrrolo[2,3-c]pyridin-2-yl)-1H-pyrazolo[3,4-b]pyridin-5-yl)pyridin-3-yl)butanamide] here?
Answer: 647 nM

Question: And the EC50 (SW480 colon cancer cells)?
Answer: > 10000 nM

Question: What about the inhibition at 10 µM (SW480 colon cancer cells) of the same molecule?
Answer: 18.4%

Question: What about the Emax [1] of the same molecule?
Answer: 37%

Question: What about the EC50 [2] of the same molecule?
Answer: 1910 nM

Question: And the inhibition at 10 µM [3]?
Answer: 17.3%

Question: What about the EC50 [3] of the same molecule?
Answer: > 10000 nM
